Values of other authors in patent US20100172990A1, “BIOCOMPATIBLE MICROGELS AND APPLICATIONS THEREOF” (UNIVERSIDAD DEL PAIS VASCO, priority 2007, published 2010).

Details: at 55° C.

- solubility in water: approximately 88 g/L
Compound: C=CN1CCCCCC1=O [VCL, N-vinylcaprolactam]
